Read-outs that look alike come from different tables or passages of the source.
Biological target: Recombinant human cathepsin A (Homo sapiens (Human), UniProt P10619)
Experiment: Cathepsin A inhibitory activity (Bodipy FL-labeled bradykinin substrate, microfluidic capillary electrophoresis)
Assay type: biochemical
Details: read-out: CATHA IC50
Experimental: Pharmacological Tests a) Cathepsin a Inhibitory Activity
Recombinant human cathepsin A (residues 29-480, with a C-terminal 10-His tag; R&D Systems, #1049-SE) was proteolytically activated with recombinant human cathepsin L (R&D Systems, #952-CY). Briefly, cathepsin A was incubated at 10 μg/ml with cathepsin L at 1 μg/ml in activation buffer (25 mM 2-(morpholin-4-yl)-ethanesulfonic acid (MES), pH 6.0, containing 5 mM dithiothreitol (DTT)) for 15 min at 37° C.
The activated cathepsin A was diluted in assay buffer (25 mM MES, pH 5.5, containing 5 mM DTT) and mixed with the test compound (dissolved in assay buffer containing (v/v) 3% DMSO) or, in the control experiments, with the vehicle in a multiple assay plate. After incubation for 15 min at room temperature, as substrate then bradykinin carrying an N-terminal® Bodipy FL (4,4-difluoro-5,7-dimethyl-4-bora-3a,4a-diaza-s-indacene-3-propionyl) label (JPT Peptide Technologies GmbH; dissolved in assay buffer) was added to the mixture. The final concentration of cathepsin A was 833 ng/ml and the final concentration of labeled bradykinin 2 μM. After incubation for 15 min at room temperature the reaction was stopped by the addition of stop buffer (130 mM 2-(4-(2-hydroxy-ethyl)-piperazin-1-yl)-ethanesulfonic acid, pH 7.4, containing (v/v) 0.013%° Triton X-100, 0.13% Coating Reagent 3 (Caliper Life Sciences), 6.5% DMSO and 20 μM ebelactone B (Sigma, #E0886)).
Uncleaved substrate and product were then separated by a microfluidic capillary electrophoresis on a LabChip® 3000 Drug Discovery System (12-Sipper-Chip; Caliper Life Sciences) and quantified by determination of the respective peak areas. Substrate turnover was calculated by dividing product peak area by the sum of substrate and product peak areas, and the enzyme activity and the inhibitory effect of the test compound thus quantified.

[1] = Cathepsin A inhibitory activity

Sequence of Recombinant human cathepsin A (P10619 29-326): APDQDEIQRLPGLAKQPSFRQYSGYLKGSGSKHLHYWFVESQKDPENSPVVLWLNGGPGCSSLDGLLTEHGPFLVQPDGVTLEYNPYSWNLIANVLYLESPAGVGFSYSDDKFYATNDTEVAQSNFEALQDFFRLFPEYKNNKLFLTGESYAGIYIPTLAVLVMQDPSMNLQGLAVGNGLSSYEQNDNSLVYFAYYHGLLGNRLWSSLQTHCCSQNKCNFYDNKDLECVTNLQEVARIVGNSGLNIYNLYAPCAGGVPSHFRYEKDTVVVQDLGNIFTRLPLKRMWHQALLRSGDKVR
Sequence of Recombinant human cathepsin A (P10619 327-480): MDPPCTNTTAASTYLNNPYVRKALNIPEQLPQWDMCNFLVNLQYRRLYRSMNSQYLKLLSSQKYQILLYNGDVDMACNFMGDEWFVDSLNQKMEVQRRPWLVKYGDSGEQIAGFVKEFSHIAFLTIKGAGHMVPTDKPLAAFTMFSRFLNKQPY

| SMILES | IC50 [nM] | IC50 [1] [nM] |
| --- | --- | --- |
| Cc1cnc(C(CC(=O)O)c2cc(Cl)cc(-c3cc(F)ccc3F)c2)s1 (stereo not drawn) [compound 101] | 136 | – |
| Cc1cnc(C(CC(=O)O)c2cc(Cl)cc(-c3cccc(C)c3F)c2)s1 (stereo not drawn) [compound 102] | 184 | – |
| Cc1cnc(C(CC(=O)O)c2cc(Cl)cc(-c3cccc(Cl)c3F)c2)s1 (stereo not drawn) [compound 103] | 197 | – |
| Cc1cnc(C(CC(=O)O)c2cc(Cl)cc(-c3ccccc3OC(F)(F)F)c2)s1 (stereo not drawn) [compound 104] | 221 | – |
| Cc1ccc(F)c(-c2cc(Cl)cc(C(CC(=O)O)c3ncc(C)s3)c2)c1 (stereo not drawn) [compound 105] | 232 | – |
| Cc1cnc(C(CC(=O)O)c2cc(Cl)cc(-c3ccccc3F)c2)s1 (stereo not drawn) [compound 107] | 328 | – |
| COc1cc(F)c(-c2cc(Cl)cc(C(CC(=O)O)c3ncc(C)s3)c2)c(F)c1 (stereo not drawn) [compound 108] | 335 | – |
| Cc1cnc(C(CC(=O)O)c2cc(Cl)cc(-c3cccc(F)c3F)c2)s1 (stereo not drawn) [compound 109] | 354 | – |
| Cc1cnc(C(CC(=O)O)c2cc(Cl)cc(-c3cccc(OC(F)(F)F)c3)c2)s1 (stereo not drawn) [compound 111] | 406 | – |
| Cc1cnc(C(CC(=O)O)c2cc(Cl)cc(-c3ccncc3)c2)s1 (stereo not drawn) [compound 112] | 459 | – |
| COc1ccc(-c2cc(Cl)cc(C(CC(=O)O)c3ncc(C)s3)c2)c(F)c1 (stereo not drawn) [compound 113] | 563 | – |
| Cc1cnc(C(CC(=O)O)c2cc(Cl)cc(-c3ccccc3C#N)c2)s1 (stereo not drawn) [compound 114] | 567 | – |
| Cc1cnc(C(CC(=O)O)c2cc(Cl)cc(-c3cccnc3)c2)s1 (stereo not drawn) [compound 115] | 1060 | – |
| Cc1cnc(C(CC(=O)O)c2cc(Cl)cc(-c3ccccc3C(=O)N(C)C)c2)s1 (stereo not drawn) [compound 116] | – | 1440 |
| Cc1cnc(C(CC(=O)O)c2cc(Cl)cc(-c3ccncc3F)c2)s1 (stereo not drawn) [compound 117] | – | 1560 |
| Cc1ccc(F)c(-c2cc(F)cc(C(CC(=O)O)c3ncc(C)s3)c2)c1 (stereo not drawn) [compound 118] | – | 437 |
| Cc1cccc(-c2cc(F)cc(C(CC(=O)O)c3ncco3)c2)c1F (stereo not drawn) [compound 119] | – | 488 |
| Cc1cnc(C(CC(=O)O)c2cc(F)cc(-c3cc(F)ccc3F)c2)s1 (stereo not drawn) [compound 120] | – | 649 |
| Cc1cnc(C(CC(=O)O)c2cc(F)cc(-c3ccccc3F)c2)s1 (stereo not drawn) [compound 122] | – | 780 |

| SMILES | IC50 [nM] | IC50 [1] [nM] |
| --- | --- | --- |
| Cc1ccc(F)c(-c2cc(F)cc(C(CC(=O)O)c3ncco3)c2)c1 (stereo not drawn) [compound 123] | – | 903 |
| Cc1cnc(C(CC(=O)O)c2cc(F)cc(-c3cccc(OC(F)(F)F)c3)c2)s1 (stereo not drawn) [compound 124] | – | 975 |
| Cc1ccc(-c2cc(F)cc(C(CC(=O)O)c3ncco3)c2)c(F)c1 (stereo not drawn) [compound 125] | – | 1160 |
| Cc1cnc(C(CC(=O)O)c2cc(F)cc(-c3cccnc3)c2)s1 (stereo not drawn) [compound 128] | – | 1330 |
| O=C(O)CC(c1cc(F)cc(-c2cccc(F)c2F)c1)c1ncco1 (stereo not drawn) [compound 129] | – | 1450 |
| O=C(O)CC(c1cc(F)cc(-c2cc(F)ccc2F)c1)c1ncco1 (stereo not drawn) [compound 130] | – | 1490 |
| Cc1cnc(C(CC(=O)O)c2cc(F)cc(-c3ccccc3C#N)c2)s1 (stereo not drawn) [compound 131] | – | 1690 |
| O=C(O)CC(c1cc(F)cc(-c2ccccc2F)c1)c1ncco1 (stereo not drawn) [compound 133] | – | 1720 |
| NC(=O)c1ccccc1-c1cc(F)cc(C(CC(=O)O)c2ncco2)c1 (stereo not drawn) [compound 134] | – | 1770 |
| CC(=O)c1ccccc1-c1cc(F)cc(C(CC(=O)O)c2ncco2)c1 (stereo not drawn) [compound 136] | – | 2030 |
| N#Cc1ccccc1-c1cc(F)cc(C(CC(=O)O)c2ncco2)c1 (stereo not drawn) [compound 137] | – | 2030 |
| O=C(O)CC(c1cc(F)cc(-c2cccc(OC(F)(F)F)c2)c1)c1ncco1 (stereo not drawn) [compound 138] | – | 2280 |
| Cc1cnc(C(CC(=O)O)c2cc(F)cc(-c3ccncc3)c2)s1 (stereo not drawn) [compound 139] | – | 8650 |
| CC(=O)c1ccccc1-c1cccc(C(CC(=O)O)c2nnc(C)o2)c1 (stereo not drawn) [compound 145] | – | 1720 |
| Cc1nnc(C(CC(=O)O)c2cccc(-c3ccccc3C#N)c2)o1 (stereo not drawn) [compound 146] | – | 4740 |
| Cc1nnc(C(CC(=O)O)c2cccc(-c3cccnc3)c2)o1 (stereo not drawn) [compound 147] | – | 6710 |
| Cc1nnc(C(CC(=O)O)c2cccc(-c3ccncc3)c2)o1 (stereo not drawn) [compound 148] | – | 20600 |
| Cc1nnc(C(CC(=O)O)c2cccc(-c3ccccc3)c2)o1 (stereo not drawn) [compound 167] | – | 935 |
| COc1ccc(-c2ccccc2)cc1C(CC(=O)O)c1nccs1 (stereo not drawn) [compound 168] | – | 4940 |

Further lines, results first:

| IC50 [nM] | IC50 [1] [nM] | SMILES |
| --- | --- | --- |
| 4390 | – | COc1ccc(-c2ccc(F)cc2)cc1C(CC(=O)O)c1ncc(C)s1 (stereo not drawn) [compound 84] |
| 5560 | – | COc1cccc(-c2ccc(OC)c(C(CC(=O)O)c3ncc(C)s3)c2)c1 (stereo not drawn) [compound 85] |
| 5680 | – | COc1ccc(-c2cc(C)ccc2F)cc1C(CC(=O)O)c1ncc(C)s1 (stereo not drawn) [compound 86] |
| 6360 | – | COc1ccc(-c2ccc(F)cc2Cl)cc1C(CC(=O)O)c1ncc(C)s1 (stereo not drawn) [compound 87] |
| 6690 | – | COc1ccc(-c2ccccc2Cl)cc1C(CC(=O)O)c1ncc(C)s1 (stereo not drawn) [compound 88] |
| 6730 | – | COc1ccc(-c2ccc(OC(F)(F)F)cc2)cc1C(CC(=O)O)c1ncc(C)s1 (stereo not drawn) [compound 89] |
| 7120 | – | COc1ccc(-c2cccc(C)c2)cc1C(CC(=O)O)c1ncc(C)s1 (stereo not drawn) [compound 90] |
| 7770 | – | COc1ccc(-c2cccc(C(F)(F)F)c2)cc1C(CC(=O)O)c1ncc(C)s1 (stereo not drawn) [compound 91] |
| 7810 | – | COc1ccc(-c2ccc(OC)c(C(CC(=O)O)c3ncc(C)s3)c2)cc1 (stereo not drawn) [compound 92] |
| 8800 | – | COc1ccc(-c2ccc(C#N)cc2)cc1C(CC(=O)O)c1ncc(C)s1 (stereo not drawn) [compound 93] |
| 9260 | – | COc1ccc(-c2cccc(C#N)c2)cc1C(CC(=O)O)c1ncc(C)s1 (stereo not drawn) [compound 94] |
| 10200 | – | COc1ccc(-c2ccccc2C(F)(F)F)cc1C(CC(=O)O)c1ncc(C)s1 (stereo not drawn) [compound 95] |
| 18100 | – | COc1ccc(-c2cccc(OC(F)(F)F)c2)cc1C(CC(=O)O)c1ncc(C)s1 (stereo not drawn) [compound 96] |
| 19300 | – | COc1ccc(-c2ccccc2C(N)=O)cc1C(CC(=O)O)c1ncc(C)s1 (stereo not drawn) [compound 97] |
| 250 | – | CC(=O)c1ccccc1-c1cc(Cl)cc(C(CC(=O)O)c2ncc(C)s2)c1 (stereo not drawn) [compound 106] |
| 404 | – | Cc1cnc(C(CC(=O)O)c2cc(Cl)cc(-c3ccccc3C(N)=O)c2)s1 (stereo not drawn) [compound 110] |
| – | 707 | CC(=O)c1ccccc1-c1cc(F)cc(C(CC(=O)O)c2ncc(C)s2)c1 (stereo not drawn) [compound 121] |
| – | 1230 | Cc1cnc(C(CC(=O)O)c2cc(F)cc(-c3ccccc3C(N)=O)c2)s1 (stereo not drawn) [compound 127] |
| – | 1700 | Cc1cnc(C(CC(=O)O)c2cc(F)cc(-c3ccccc3C(=O)N(C)C)c2)s1 (stereo not drawn) [compound 132] |

— patent publication US9199947B2, “Biaryl-propionic acid derivatives and their use as pharmaceuticals” (SANOFI, priority 2013, dated 2015)
